Measurements: PubChem BioAssay AID2060353 (Molecular Pharmacology Branch, DTP, NCI, 2025)

Test system: 521955-158-R2-J5-PDC spheroids with stroma, growth inhibition
Assay: Anticancer human tumor 521955-158-R2-J5-PDC patient-derived pancreatic carcinoma cell line growth inhibition [TAK]
Conditions: for IC50: curve of first compound; for viability, T/C: stronger effect = lower value
Summary of the method: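 Tumor cells were grown as spheroids with HUVEC and hMSC (60:25:15) and treated with targeted agents combined with TAK-243 or ipatasertib. Drugs were tested in half-log steps down from near the clinical Cmax, or from 10 microM where Cmax was unknown.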

[1] = second compound 0.3 µM, first compound 0.00316 µM
[2] = second compound 0.3 µM, first compound 0.01 µM
[3] = second compound 0.3 µM, first compound 0.0316 µM
[4] = second compound 0.3 µM, first compound 0.1 µM
[5] = second compound 0.949 µM, first compound 0.00316 µM
[6] = second compound 0.949 µM, first compound 0.01 µM
[7] = second compound 0.949 µM, first compound 0.0316 µM
[8] = second compound 0.949 µM, first compound 0.1 µM
[9] = second compound 3 µM, first compound 0.00316 µM
[10] = second compound 3 µM, first compound 0.01 µM
[11] = second compound 3 µM, first compound 0.0316 µM
[12] = second compound 3 µM, first compound 0.1 µM
[13] = second compound 9.49 µM, first compound 0.00316 µM
[14] = second compound 9.49 µM, first compound 0.01 µM
[15] = second compound 9.49 µM, first compound 0.0316 µM
[16] = second compound 9.49 µM, first compound 0.1 µM
[17] = second compound 30 µM, first compound 0.00316 µM
[18] = second compound 30 µM, first compound 0.01 µM
[19] = second compound 30 µM, first compound 0.0316 µM
[20] = second compound 30 µM, first compound 0.1 µM
[21] = second compound 0.3 µM, first compound 0.316 µM
[22] = second compound 0.3 µM, first compound 1 µM
[23] = second compound 0.949 µM, first compound 0.316 µM
[24] = second compound 0.949 µM, first compound 1 µM
[25] = second compound 3 µM, first compound 0.316 µM
[26] = second compound 3 µM, first compound 1 µM
[27] = second compound 9.49 µM, first compound 0.316 µM
[28] = second compound 9.49 µM, first compound 1 µM
[29] = second compound 30 µM, first compound 0.316 µM
[30] = second compound 30 µM, first compound 1 µM
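Note: spheroids exposed to drugs for seven days before readout.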
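Throughout, for viability, T/C: 100% = DMSO vehicle control viability.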

SMILES | IC50 (second compound 0.3 µM) [nM] | IC50 (second compound 0.949 µM) [nM] | IC50 (second compound 3 µM) [nM] | IC50 (second compound 9.49 µM) [nM] | IC50 (second compound 30 µM) [nM] | viability, T/C [1] [%] | viability, T/C [2] [%] | viability, T/C [3] [%] | viability, T/C [4] [%] | viability, T/C [5] [%] | viability, T/C [6] [%] | viability, T/C [7] [%] | viability, T/C [8] [%] | viability, T/C [9] [%] | viability, T/C [11] [%] | viability, T/C [12] [%] | viability, T/C [15] [%] | viability, T/C [16] [%] | viability, T/C [19] [%] | viability, T/C [20] [%] | also measured
CC(C)n1nc(-c2ccc3oc(N)nc3c2)c2c(N)ncnc21 + CC(C)NCC(C(=O)N1CCN(c2ncnc3c2C(C)CC3O)CC1)c1ccc(Cl)cc1 | 32 | 34.9 | 17.7 | 8.6 | 0.516 | 85 | 60.4 | 54.8 | 36.5 | 65.7 | 66.9 | 49.6 | 36 | 84.8 | 37.6 | 28.2 | 29.1 | 19.3 | 10.4 | 9.55 | viability, T/C (second compound 0.3 µM, first compound 0.000316 µM): 106%; viability, T/C (second compound 0.3 µM, first compound 0.001 µM): 96.9%; viability, T/C (second compound 0.949 µM, first compound 0.000316 µM): 78.3%; viability, T/C (second compound 0.949 µM, first compound 0.001 µM): 69.3%; viability, T/C (second compound 3 µM, first compound 0.000316 µM): 83.5%; viability, T/C (second compound 3 µM, first compound 0.001 µM): 77.8%; viability, T/C [10]: 62.3%; viability, T/C (second compound 9.49 µM, first compound 0.000316 µM): 110%; viability, T/C (second compound 9.49 µM, first compound 0.001 µM): 102%; viability, T/C [13]: 79.2%; viability, T/C [14]: 44.2%; viability, T/C (second compound 30 µM, first compound 0.000316 µM): 52.1%; viability, T/C (second compound 30 µM, first compound 0.001 µM): 47.1%; viability, T/C [17]: 37.5%; viability, T/C [18]: 17.1%
COc1c(OCCCN2CCOCC2)ccc2c3n(c(=NC(=O)c4cnc(N)nc4)nc12)CCN3 + CC(C)NCC(C(=O)N1CCN(c2ncnc3c2C(C)CC3O)CC1)c1ccc(Cl)cc1 | 18.5 | 5.05 | < 3.16 | < 3.16 | < 3.16 | 69.3 | 60.2 | 40.2 | 25.3 | 51 | 48.7 | 31.4 | 15.8 | 41 | 17.3 | 10.1 | 12.8 | 8.78 | 8.7 | 7.22 | viability, T/C [21]: 7.66%; viability, T/C [22]: 7.14%; viability, T/C [23]: 8.04%; viability, T/C [24]: 7.27%; viability, T/C [10]: 28%; viability, T/C [25]: 7.86%; viability, T/C [26]: 7.56%; viability, T/C [13]: 23.8%; viability, T/C [14]: 16.5%; viability, T/C [27]: 7.47%; viability, T/C [28]: 7.49%; viability, T/C [17]: 19.2%; viability, T/C [18]: 13.1%; viability, T/C [29]: 6.67%; viability, T/C [30]: 5.5%
Cc1nc(NC(=O)N2CCCC2C(N)=O)sc1-c1ccnc(C(C)(C)C(F)(F)F)c1 (stereo not given) + CC(C)NCC(C(=O)N1CCN(c2ncnc3c2C(C)CC3O)CC1)c1ccc(Cl)cc1 | 909 | 533 | 159 | 123 | < 31.6 | – | – | 109 | 84.3 | – | – | 76.2 | 69 | – | 78.7 | 54 | 70.7 | 55.4 | 48 | 42.7 | viability, T/C [21]: 58.2%; viability, T/C [22]: 49%; viability, T/C (second compound 0.3 µM, first compound 3.16 µM): 45.1%; viability, T/C (second compound 0.3 µM, first compound 10 µM): 30.1%; viability, T/C [23]: 52.5%; viability, T/C [24]: 45%; viability, T/C (second compound 0.949 µM, first compound 3.16 µM): 34.8%; viability, T/C (second compound 0.949 µM, first compound 10 µM): 27.7%; viability, T/C [25]: 40.6%; viability, T/C [26]: 31.3%; viability, T/C (second compound 3 µM, first compound 3.16 µM): 22.3%; viability, T/C (second compound 3 µM, first compound 10 µM): 15.2%; viability, T/C [27]: 29.5%; viability, T/C [28]: 19.6%; viability, T/C (second compound 9.49 µM, first compound 3.16 µM): 13.7%; viability, T/C (second compound 9.49 µM, first compound 10 µM): 8.86%; viability, T/C [29]: 23.9%; viability, T/C [30]: 17.2%; viability, T/C (second compound 30 µM, first compound 3.16 µM): 11%; viability, T/C (second compound 30 µM, first compound 10 µM): 6.07%
